Assay results published in patent US10441562B2, “Aromatic farnesyl compound and application thereof” (INSTITUTE OF MICROBIOLOGY, CHINESE ACADEMY OF SCIENCES, priority 2015, dated 2019).
Marks after values point to notes of the source that are not given here.

Tested on: rats fed with high fat diet
Test: blood lipid of rats fed with high fat diet
Assay type: in vivo, SD rats
Settings: 50 mg/kg intragastric, 10 days, serum
Source text: Serum total cholesterol kit (batch number 20131112), low density lipoprotein LDL-C kit (batch number 20140114), high density lipoprotein HDL-C kit (batch number 20140413), triglyceride TG kit (batch number 20131226), superoxide dismutase SOD kit (batch number 20140213) and glutamic-pyruvic transaminase ALT kit (batch number 20131006) are purchased from Nanjing Jiancheng Bioengineering Institute.
Methods: after being acclimatized for 1 week, the 200±20 g healthy male SD rats are randomly divided into 4 groups of 8 animals in each. The control group is fed with normal diet, while the other groups are fed with high-fat diet, which is normal diet with 1% cholesterol, 0.2% pig bile sal, 10% lard and 10% egg yolk powder. After being fed for 3 weeks, 10 mg/ml extract solution of 1 ml (which corresponds to 50 mg/kg) is given to different groups of rats by intragastric administration for 10 days successively, and the control group and model group are given with equal amounts of saline. After the last administration, blood is taken to be centrifuged at 3000 rpm in 4[…], and then detect serum total cholesterol, low density lipoprotein and triglyceride TG

For `CC(C)=CCC/C(C)=C/CCC1=C[C@@H](c2cc(O)ccc2O)OC1=O` [S28, (S,E)-5-(2,5-dihydroxyphenyl)-3-(4,8-dimethylnona-3,7-dien-1-yl)furan-2(5H)-one], the ALT was 72.1* U/L, the HDL-C was 0.97 mmol/L and the LDL-C was 0.38** mmol/L. The SOD was 2.10* U/L, the TC was 1.98** mmol/L and the TG was 0.45* mmol/L.
For `CC(C)=CCC/C(C)=C/CCC1=C[C@H](c2cc(O)ccc2O)OC1=O` [S13, (R,E)-5-(2,5-dihydroxyphenyl)-3-(4,8-dimethylnona-3,7-dien-1-yl)furan-2(5H)-one], the ALT was 61.3* U/L, the HDL-C was 0.99 mmol/L and the LDL-C was 0.36** mmol/L. The SOD was 2.04 U/L, the TC was 2.13* mmol/L and the TG was 0.44* mmol/L.
